Results as given in patent publication US9963455B2, “Pyrazolo[1,5-a]pyrimidines as antiviral compounds” (Curovir AB, priority 2014, dated 2018).

Legend:
Type in all cases: cell-based
[1] = tested on: Enterovirus strain 71; assay: CPE inhibition in mammalian cell culture, EV71; conditions: for inhibition at 1 µM: EV71, Conc. 1.0 μM; for inhibition at 0.01 µM: EV71, Conc. 0.01 μM
[2] = tested on: Enterovirus strain 30; assay: CPE inhibition in mammalian cell culture, EV30
[3] = tested on: coxsackie B virus strain 5; assay: CPE inhibition in mammalian cell culture, Cox-B5; conditions: read-out: % inh.
[4] = tested on: Ljungan virus strain 145; assay: CPE inhibition in mammalian cell culture, LV145; conditions: Parechovirus B; for inhibition at 10 µM: LV145, Conc. 10.0 μM; for inhibition at 1 µM: LV145, Conc. 1.0 μM
[5] = tested on: Ljungan virus strain 012; assay: CPE inhibition in mammalian cell culture, LV012; conditions: Parechovirus B, read-out: % inh.; for inhibition at 10 µM: LV012, Conc. 10 μM
[6] = tested on: coxsackie B virus strain 1; assay: CPE inhibition in mammalian cell culture, Cox-B1; conditions: read-out: % inh.

Question: How did the inhibition at 1 µM [1] turn out when `Cc1cc(NCc2ccccc2)n2nc(C)c(-c3ccc(F)cc3)c2n1` [Ex. 13, N-benzyl-3-(4-fluorophenyl)-2,5-dimethyl-pyrazolo[1,5-a]pyrimidin-7-amine] was run?
Answer: The inhibition at 1 µM was 66%.

Question: `Cc1ccc(-c2c(C)nn3c(NCc4cccnc4)cc(C)nc23)cc1` [Ex. 34, 2,5-dimethyl-3-(p-tolyl)-N-(3-pyridylmethyl)pyrazolo[1,5-a]pyrimidin-7-amine] was tested. Which inhibition at 1 µM [1] did it give?
Answer: Its inhibition at 1 µM is 100%.

Question: Which inhibition at 0.1 µM ([2]; EV30, Conc. 0.1 μM) does the source give for `COc1ccc(-c2c(C)nn3c(NCc4ccccn4)cc(C)nc23)cc1OC` [Ex. 35, 3-(3,4-dimethoxyphenyl)-2,5-dimethyl-N-(2-pyridylmethyl)pyrazolo[1,5-a]pyrimidin-7-amine] here?
Answer: The inhibition at 0.1 µM was 88%.

Question: With `Cc1cc(NCc2cccnc2)n2nc(C)c(-c3ccc(F)cc3)c2n1` [Ex. 36, 3-(4-fluorophenyl)-2,5-dimethyl-N-(3-pyridylmethyl)pyrazolo[1,5-a]pyrimidin-7-amine] as the compound, how does the inhibition at 1 µM [3] read?
Answer: Its inhibition at 1 µM is 97%.

Question: How did the inhibition at 0.01 µM [1] turn out when `COc1ccc(-c2c(C)nn3c(NCc4ccccc4)cc(C)nc23)cc1OC` [Ex. 40, N-benzyl-3-(3,4-dimethoxyphenyl)-2,5-dimethyl-pyrazolo[1,5-a]pyrimidin-7-amine] was run?
Answer: Its inhibition at 0.01 µM is 100%.

Question: With `Cc1cc(NCc2cccnc2)n2nc(C)c(-c3ccc(Cl)cc3)c2n1` [Ex. 45, 3-(4-chlorophenyl)-2,5-dimethyl-N-(3-pyridylmethyl)pyrazolo[1,5-a]pyrimidin-7-amine] as the compound, how does the inhibition at 1 µM [1] read?
Answer: Its inhibition at 1 µM is 100%.

Question: Which inhibition at 10 µM [4] does the source give for `COc1ccc(-c2c(C)nn3c(Nc4ccc(Br)cc4)cc(C)nc23)cc1OC` [Ex. 46, N-(4-bromophenyl)-3-(3,4-dimethoxyphenyl)-2,5-dimethyl-pyrazolo[1,5-a]pyrimidin-7-amine] here?
Answer: Its inhibition at 10 µM is 92%.

Question: How did the inhibition at 10 µM [4] turn out when `COc1ccc(-c2c(C)nn3c(Nc4cccc(Cl)c4)cc(C)nc23)cc1OC` [Ex. 51, N-(3-chlorophenyl)-3-(3,4-dimethoxyphenyl)-2,5-dimethyl-pyrazolo[1,5-a]pyrimidin-7-amine] was run?
Answer: Its inhibition at 10 µM is 94%.

Question: With `COc1ccc(-c2c(C)nn3c(Nc4ccc(C)c(C)c4)cc(C)nc23)cc1OC` [Ex. 52, 3-(3,4-dimethoxyphenyl)-N-(3,4-dimethylphenyl)-2,5-dimethyl-pyrazolo[1,5-a]pyrimidin-7-amine] as the compound, how does the inhibition at 10 µM [4] read?
Answer: Its inhibition at 10 µM is 63%.

Question: With `COc1ccc(-c2c(C)nn3c(Nc4ccc(C)c(Cl)c4)cc(C)nc23)cc1OC` [Ex. 55, N-(3-chloro-4-methyl-phenyl)-3-(3,4-dimethoxyphenyl)-2,5-dimethyl-pyrazolo[1,5-a]pyrimidin-7-amine] as the compound, how does the inhibition at 1 µM [4] read?
Answer: Its inhibition at 1 µM is 41%.

Question: How did the inhibition at 1 µM [4] turn out when `COc1ccc(-c2c(C)nn3c(Nc4cc(C)cc(C)c4)cc(C)nc23)cc1OC` [Ex. 56, 3-(3,4-dimethoxyphenyl)-N-(3,5-dimethylphenyl)-2,5-dimethyl-pyrazolo[1,5-a]pyrimidin-7-amine] was run?
Answer: The inhibition at 1 µM was 61%.

Question: Which inhibition at 1 µM [1] does the source give for `COc1ccc(-c2c(C)nn3c(Nc4ccc(C(C)C)cc4)cc(C)nc23)cc1OC` [Ex. 60, 3-(3,4-dimethoxyphenyl)-N-(4-isopropylphenyl)-2,5-dimethyl-pyrazolo[1,5-a]pyrimidin-7-amine] here?
Answer: Its inhibition at 1 µM is 69%.

Question: Which inhibition at 10 µM [4] does the source give for `COc1cccc(Nc2cc(C)nc3c(-c4ccc(OC)c(OC)c4)c(C)nn23)c1` [Ex. 61, 3-(3,4-dimethoxyphenyl)-N-(3-methoxyphenyl)-2,5-dimethyl-pyrazolo[1,5-a]pyrimidin-7-amine] here?
Answer: Its inhibition at 10 µM is 85%.

Question: For `COc1ccc(-c2c(C)nn3c(NCCc4ccccn4)cc(C)nc23)cc1` [Ex. 68, 3-(4-methoxyphenyl)-2,5-dimethyl-N-[2-(2-pyridyl)ethyl]pyrazolo[1,5-a]pyrimidin-7-amine], which inhibition at 10 µM [4] is on record?
Answer: The inhibition at 10 µM was 86%.

Question: For `COc1ccc(-c2c(C)nn3c(Nc4ccncc4)cc(C)nc23)cc1OC` [Ex. 74, 3-(3,4-dimethoxyphenyl)-2,5-dimethyl-N-(4-pyridyl)pyrazolo[1,5-a]pyrimidin-7-amine], which inhibition at 10 µM [5] is on record?
Answer: Its inhibition at 10 µM is 55%.

Question: `COc1ccc(-c2c(C)nn3c(NCc4ccc(N(C)C)cc4)cc(C)nc23)cc1OC` [Ex. 78, 3-(3,4-dimethoxyphenyl)-N-[(4-dimethylaminophenyl)methyl]-2,5-dimethyl-pyrazolo[1,5-a]pyrimidin-7-amine] was tested. Which inhibition at 0.1 µM [6] did it give?
Answer: Its inhibition at 0.1 µM is 94%.

Question: `COc1ccc(-c2c(C)nn3c(NCc4cc[n+]([O-])cc4)cc(C)nc23)cc1OC` [Ex. 83, 3-(3,4-dimethoxyphenyl)-2,5-dimethyl-N-[(1-oxidopyridin-1-ium-4-yl)methyl]pyrazolo[1,5-a]pyrimidin-7-amine] was tested. Which inhibition at 0.01 µM [1] did it give?
Answer: The inhibition at 0.01 µM was 82%.

Question: `COc1ccc(-c2c(C)nn3c(NCCc4ccccn4)cc(C)nc23)cc1OC` [Ex. 85, 3-(3,4-dimethoxyphenyl)-2,5-dimethyl-N-[2-(2-pyridyl)ethyl]pyrazolo[1,5-a]pyrimidin-7-amine] was tested. Which inhibition at 1 µM [6] did it give?
Answer: The inhibition at 1 µM was 98%.

Question: For `COc1ccc(-c2c(C)nn3c(NCc4ccc(C(C)(C)C)cc4)cc(C)nc23)cc1OC` [Ex. 86, N-[(4-tert-butylphenyl)methyl]-3-(3,4-dimethoxyphenyl)-2,5-dimethyl-pyrazolo[1,5-a]pyrimidin-7-amine], which inhibition at 10 µM [5] is on record?
Answer: The inhibition at 10 µM was 48%.

Question: `COc1ccc(-c2c(C)nn3c(NCCc4cccs4)cc(C)nc23)cc1OC` [Ex. 88, 3-(3,4-dimethoxyphenyl)-2,5-dimethyl-N-[2-(2-thienyl)ethyl]pyrazolo[1,5-a]pyrimidin-7-amine] was tested. Which inhibition at 1 µM ([2]; EV30, Conc. 1.0 μM, read-out: % inh.) did it give?
Answer: The inhibition at 1 µM was 88%.

Question: Which inhibition at 1 µM [3] does the source give for `COc1ccc(-c2c(C)nn3c(NC4Cc5ccccc5C4)cc(C)nc23)cc1OC` [Ex. 91, 3-(3,4-dimethoxyphenyl)-N-indan-2-yl-2,5-dimethyl-pyrazolo[1,5-a]pyrimidin-7-amine] here?
Answer: The inhibition at 1 µM was 75%.

Question: Which inhibition at 100 µM ([5]; LV012, Conc. 100 μM) does the source give for `COc1ccc(-c2c(C)nn3c(Nc4ncc(C)s4)cc(C)nc23)cc1OC` [Ex. 93, N-[3-(3,4-dimethoxyphenyl)-2,5-dimethyl-pyrazolo[1,5-a]pyrimidin-7-yl]-5-methyl-thiazol-2-amine] here?
Answer: The inhibition at 100 µM was 42%.

Question: `COc1ccc(-c2c(C)nn3c(NCc4cccc5ccccc45)cc(C)nc23)cc1OC` [Ex. 96, 3-(3,4-dimethoxyphenyl)-2,5-dimethyl-N-(1-naphthylmethyl)pyrazolo[1,5-a]pyrimidin-7-amine] was tested. Which inhibition at 0.1 µM [6] did it give?
Answer: Its inhibition at 0.1 µM is 100%.

Question: With `COc1ccc(-c2c(C)nn3c(NCc4ccc(S(N)(=O)=O)cc4)cc(C)nc23)cc1OC` [Ex. 97, 4-[[[3-(3,4-dimethoxyphenyl)-2,5-dimethyl-pyrazolo[1,5-a]pyrimidin-7-yl]amino]methyl]benzenesulfonamide] as the compound, how does the inhibition at 0.1 µM ([1]; EV71, Conc. 0.1 μM) read?
Answer: The inhibition at 0.1 µM was 94%.

Question: For `COc1cc(-c2c(C)nn3c(NCc4ccc(F)cc4)cc(C)nc23)cc(OC)c1OC` [Ex. 105, N-[(4-fluorophenyl)methyl]-2,5-dimethyl-3-(3,4,5-trimethoxyphenyl)pyrazolo[1,5-a]pyrimidin-7-amine], which inhibition at 10 µM ([2]; EV30, Conc. 10 μM, read-out: % inh.) is on record?
Answer: Its inhibition at 10 µM is 67%.

Question: Which inhibition at 10 µM [4] does the source give for `Cc1cc(NCc2ccc(F)cc2)n2nc(C)c(-c3ccc(F)c(F)c3)c2n1` [Ex. 106, 3-(3,4-difluorophenyl)-N-[(4-fluorophenyl)methyl]-2,5-dimethyl-pyrazolo[1,5-a]pyrimidin-7-amine] here?
Answer: Its inhibition at 10 µM is 100%.

Question: For `COc1ccc(-c2c(C)nn3c(NCc4ccc(C)cc4)cc(C)nc23)cc1F` [Ex. 108, 3-(3-fluoro-4-methoxy-phenyl)-2,5-dimethyl-N-(p-tolylmethyl)pyrazolo[1,5-a]pyrimidin-7-amine], which inhibition at 1 µM [6] is on record?
Answer: The inhibition at 1 µM was 100%.

Question: For `Cc1ccc(CNc2cc(C)nc3c(-c4ccc(O)c(O)c4)c(C)nn23)cc1` [Ex. 110, 4-[2,5-dimethyl-7-(p-tolylmethylamino)pyrazolo[1,5-a]pyrimidin-3-yl]benzene-1,2-diol], which inhibition at 1 µM [3] is on record?
Answer: The inhibition at 1 µM was 72%.
